Source: patent EP0382411B1, “Delivery of cytotoxic agents” (ELI LILLY AND COMPANY, priority 1989, dated 1990)
≈ marks a conversion by molar mass, not a printed value. Where “and” joins values, the source holds several entries; their conditions need not be identical. Identical values can stand only once.

Key:
[1] = test system: CEA - bearing LS174T tumor cells; experiment: In vitro cytotoxicity determination (3H-leucine uptake); type: cell-based
Experimental: Target cells (antigen positive or antigen negative) are resuspended in 75% leucine deficient EBSS-MEM (GIBCO, Grand Island, NY) + 10% dialyzed fetal bovine serum (FBS) + gentamicin (GIBCO) at 200,000 cells/ml. Aliquots of this cell suspension, 0.2 ml, are seeded into 96 well plates and incubated overnight at 37°C, 5% CO₂. To the supernatants is added the antibody-enzyme conjugate to a final concentration of 25 µg/ml (unconjugated enzyme, unconjugated antibody, no treatment). The supernatants are removed after 1 hr incubation, and the cells rinsed once with media. The media is then replaced with the same media, but containing a Substrate-Cytotoxic Agent at concentrations between 0.001 and 10 µg/ml. The cells are incubated with the Substrate-Cytotoxic Agent compound for a period of time ranging from 3 to 48 h at 37°C, 5% CO₂. Media containing 4 µCi of ³H-leucine are added per well. The cells are incubated 24 hr with the labeled leucine, then harvested. Uptake of labeled leucine is determined by liquid scintillation counting. (All Samples are run in triplicate.) Results are reported as the Substrate-Cytotoxic Agent concentration at which leucine incorporation is reduced to 50% of the control value (ID₅₀).
The rest of the experiment was carried using the above standard procedure.

[2] = molecular target: P-99 E. cloacae beta-lactamase Enzyme (Enterobacter cloacae, UniProt P05364); experiment: Release of substituents from the 3'-methylene group of cephalosporins on treatment with beta-lactamase; type: biochemical
Experimental: (If the detection method is not instantaneous, the enzyme can be stopped at the desired time by addition of an inhibitor such as cloxacillin (Sigma, St. Louis, Mo.) at its effective concentration: 5 µM for cloxacillin.)
For instance, a model system for the present method employs the expulsion of aminoethanethiol from 7-β-(2-(thien-2-yl)acetamido)-3-((2-aminoethyl-1-sulfide)methylene)-3-cephem-4-carboxylic acid. A typical enzyme assay was performed (following the 264 nm absorbance), but in 50 mM Tris, 100 mM NaCl buffer, pH 8.0. […] Using molar extinction coefficients of 8,540 for the 264 nm absorbance, and 13,600 for the 412 nm absorbance, the rates of the two reactions can be compared (reaction of thiol with DTNB is instantaneous under these conditions).
A stock solution of P-99 E. cloacae beta-lactamase Enzyme was prepared. To the stock solution of the cephalosporin Substrate (90 µl) was added stock beta-lactamase solution (10 µl). The reaction was monitored by HPLC (on a Waters Associates C₁₈ µ Bondapak column) eluted with 25% acetonitrile/ 1% acetic acid in water (monitered at 254 nm absorbance). The retention time for 5-fluorouracil was 1.9 minutes and was 5.3 minutes for the cephalosporin - (5-fluorouracil) compound. Approximately 30 seconds after mixing, a 5 µl aliqout of the reaction mixture was injected into the HPLC. […] Thirty-six minutes after mixing the stock solutions the amount of compound eluting at […] was further diminished, and the amount of compound eluting at 1.9 minutes was correspondingly larger by intergration of the peak areas.

[3] = test system: male Fischer 344 rats; experiment: Rat hematology protocol (white blood cell determination); type: in vivo; details: for WBC's, Day 0, Mean: group mean of 5 rats; for WBC's, Day 0, Mean / WBC's, Day 0: pre-bleed before i.v. injection of 1 mg/kg; for WBC's, Day 3, Mean / WBC's, Day 7, Mean: group mean; for WBC's, Day 7, Mean / WBC's, Day 7: day 7 after 1 mg/kg i.v.; for WBC's, Day 3 / WBC's, Day 7 / WBC's, Day 0: individual rat; for WBC's, Day 0: 1 mg/kg
Experimental: The purpose of the following procedure was to compare the toxicity of the Substrate-Cytotoxic Agent to the toxicity of Cytotoxic Agent alone. • 1. Day 0: 25 male Fischer 344 rats (∼100g) are pre-bled (eyebleed) and injected i.v. as follows: • Group A: 5 rats + vehicle control: 0.5 ml 10 mM HEPES, 150 NaCl, pH 7.1 buffer containing 10% ethanol. • Group B: 5 rats + 1 mg/kg 4 desacetylvinblastine-3-carboxhydrazide (DAVLBHYD). Dissolve 1 mg DAVLBHYD in 0.5 ml absolute ethanol and add 4.5 ml HEPES-NaCl buffer. Inject each rat with 0.5 ml. • Group C: 5 rats + 1 mg/kg ("LY262758") (7-β-2-(phenoxyacetamido)-3-(((desacetylvinblastine)aminocarboxy)methylene)-3-cephem-1-β-sulfoxide-4-carboxybiacid, trifluoroacetic acid salt) (vinca content), (58% vinca). Dissolve 2 mg as above and inject 0.5 ml. • Group D: 5 rats + 1mg/kg ("LY266494"), (7-β-(2-(thien-2-yl)acetamido-3-(((desacetylvinblastinehydrazido)carbonyloxy)methylene)-3-cephem-4-carboxylic acid, hydrochloride salt (55.8% vinca). Dissolve 2 mg and inject 0.5 ml. • Group E: 5 rats + 1 mg/kg ("LY266070") 7-β-(2-(thien-2-yl)acetamido-3-(((desacetylvinblastinehydrazido)carbonyloxy)methylene)-3-cephem-1-β-sulfoxide-4-carboxylic acid, trifluoroacetic acid salt. Dissovle 2 mg and inject 0.5 ml. All animals were indentifed by ear punch and were bled on days 3 and 7 post treatment for white blood cell (WBC) determination. The raw data are on the following page. […] The WBC values of the groups were indistinguishable at day 7 (and lower than the pre-bleed which may have been due to using a different instrument for the WBC determination).

[4] = test system: white blood cell (WBC); experiment: as above; type: in vivo, male Fischer 344 rats; details: day 3 post treatment, 1 mg/kg i.v., compared to all other groups
Experimental: The purpose of the following procedure was to compare the toxicity of the Substrate-Cytotoxic Agent to the toxicity of Cytotoxic Agent alone. • 1. Day 0: 25 male Fischer 344 rats (∼100g) are pre-bled (eyebleed) and injected i.v. as follows: • Group A: 5 rats + vehicle control: 0.5 ml 10 mM HEPES, 150 NaCl, pH 7.1 buffer containing 10% ethanol. • Group B: 5 rats + 1 mg/kg 4 desacetylvinblastine-3-carboxhydrazide (DAVLBHYD). Dissolve 1 mg DAVLBHYD in 0.5 ml absolute ethanol and add 4.5 ml HEPES-NaCl buffer. Inject each rat with 0.5 ml. • Group C: 5 rats + 1 mg/kg ("LY262758") (7-β-2-(phenoxyacetamido)-3-(((desacetylvinblastine)aminocarboxy)methylene)-3-cephem-1-β-sulfoxide-4-carboxybiacid, trifluoroacetic acid salt) (vinca content), (58% vinca). Dissolve 2 mg as above and inject 0.5 ml. • Group D: 5 rats + 1mg/kg ("LY266494"), (7-β-(2-(thien-2-yl)acetamido-3-(((desacetylvinblastinehydrazido)carbonyloxy)methylene)-3-cephem-4-carboxylic acid, hydrochloride salt (55.8% vinca). Dissolve 2 mg and inject 0.5 ml. • Group E: 5 rats + 1 mg/kg ("LY266070") 7-β-(2-(thien-2-yl)acetamido-3-(((desacetylvinblastinehydrazido)carbonyloxy)methylene)-3-cephem-1-β-sulfoxide-4-carboxylic acid, trifluoroacetic acid salt. Dissovle 2 mg and inject 0.5 ml. All animals were indentifed by ear punch and were bled on days 3 and 7 post treatment for white blood cell (WBC) determination. […]

[5] = substance alone, no conjugate, treatment time 6 Hours
[6] = substance alone, no conjugate, treatment time 48 Hours
[7] = day 3 after 1 mg/kg i.v., trifluoroacetic acid salt

P-99 E. cloacae beta-lactamase Enzyme, sequence (P05364 21-381): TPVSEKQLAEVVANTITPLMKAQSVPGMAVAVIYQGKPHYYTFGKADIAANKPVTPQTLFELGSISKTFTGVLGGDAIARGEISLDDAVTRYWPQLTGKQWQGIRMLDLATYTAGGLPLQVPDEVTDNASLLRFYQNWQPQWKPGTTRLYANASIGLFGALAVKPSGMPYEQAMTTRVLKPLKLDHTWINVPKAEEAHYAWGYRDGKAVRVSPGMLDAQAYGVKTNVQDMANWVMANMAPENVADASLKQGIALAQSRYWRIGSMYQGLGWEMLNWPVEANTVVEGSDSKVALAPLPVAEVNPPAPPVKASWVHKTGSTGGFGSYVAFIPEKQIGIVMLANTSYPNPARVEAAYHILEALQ

Compound: 7-β-(2-(thien-2-yl)acetamido)-3-((((1-(desacetylvinblastine)amino)-2-ethylsulfide)methylene)-3-cephem-4-carboxylic acid [COMPOUND] [listing 1 of 2 here]
- ID50 ([1]; cells first treated with B-L-CEM231 conjugate 25 µg/ml for 1 hour, COMPOUND treatment time 6 Hours): 0.265 µg/mL
- ID50 ([1]; cells first treated with B-L-CEM231 conjugate 25 µg/ml for 1 hour, COMPOUND treatment time 48 Hours): <0.001 µg/mL
- ID50 [1, 5]: .154 µg/mL
- ID50 [1, 6]: <0.001 µg/mL

Compound: O=C(Cc1cccs1)N[C@@H]1C(=O)N2C(C(=O)O)=C(Cn3cc(F)c(=O)[nH]c3=O)CS[C@H]12 [ceph-5-FU, 7-β-(2-(thien-2-yl)acetamido)-3-((N-1(5-fluorouracil)-yl)methylene)-3-cephem-4-carboxylic acid]
- expulsion of 5-fluorouracil (HPLC trace) ([2]; approximately 30 seconds after mixing with beta-lactamase): the cephalosporin had been consumed
- expulsion of 5-fluorouracil (HPLC trace) ([2]; twenty-one minutes after mixing, 5-fluorouracil elutes at 1.9 minutes): a large amount of compound eluting at 1.9 minutes was observed

Compound: 7-β-2-(phenoxyacetamido)-3-(((desacetylvinblastine)aminocarboxy)methylene)-3-cephem-1-β-sulfoxide-4-carboxybiacid, trifluoroacetic acid salt [LY262758]
- WBC's, Day 0, Mean [3]: 13.4 x 1000
- WBC's, Day 3, Mean ([3]; day 3 after 1 mg/kg i.v.): 14.8 x 1000
- WBC's, Day 7, Mean [3]: 11.2 x 1000
- WBC's, Day 3 [3, 7]: 13.3 x 1000 and 14.6 x 1000 and 15.0 x 1000 and 16.3 x 1000 and 14.7 x 1000
- WBC's, Day 7 ([3]; trifluoroacetic acid salt): 14.0 x 1000 and 13.0 x 1000 and 12.5 x 1000 and 9.0 x 1000 and 7.7 x 1000
- WBC's, Day 0 ([3]; trifluoroacetic acid salt): 13.3 x 1000 and 14.3 x 1000 and 9.4 x 1000 and 10.2 x 1000 and 19.7 x 1000

Compound: CC[C@]1(O)C[C@@H]2CN(CCc3c([nH]c4ccccc34)[C@@](C(=O)OC)(c3cc4c(cc3OC)N(C)[C@H]3[C@@](O)(C(=O)NN)[C@H](O)[C@]5(CC)C=CCN6CC[C@]43[C@@H]65)C2)C1 [DAVLBHYD, 4 desacetylvinblastine-3-carboxhydrazide]
- white blood cell (WBC) determination [4]: significant WBC suppression

Compound: CCC1(O)CC2CN(CCc3c([nH]c4ccccc34)C(C(=O)OC)(c3cc4c(cc3OC)N(C)C3C(O)(C(=O)NCCS)C(O)C5(CC)C=CCN6CCC43C65)C2)C1 (stereo not shown) [Desacetylvinblastine aminoethanethiol, reference compound]
- ID50 [1, 5]: 0.26 µg/mL (≈ 0.319 µM)
- ID50 [1, 6]: <0.001 µg/mL

Compound: CC[C@]1(O)C[C@H]2CN(CCc3c([nH]c4ccccc34)[C@@](C(=O)OC)(c3cc4c(cc3OC)N(C)[C@H]3[C@@](O)(C(=O)NNC(=O)OCC5=C(C(=O)O)N6C(=O)[C@@H](NC(=O)Cc7cccs7)[C@H]6[S+]([O-])C5)[C@H](O)[C@]5(CC)C=CCN6CC[C@]43[C@@H]65)C2)C1.O=C(O)C(F)(F)F (stereo partly shown) [LY266070]
- WBC's, Day 0, Mean [3]: 13.0 x 1000
- WBC's, Day 3, Mean ([3]; day 3 after 1 mg/kg i.v.): 13.9 x 1000
- WBC's, Day 7, Mean [3]: 9.6 x 1000
- WBC's, Day 3 [3, 7]: 15.9 x 1000 and 12.8 x 1000 and 15.1 x 1000 and 14.5 x 1000 and 11.3 x 1000
- WBC's, Day 7 ([3]; trifluoroacetic acid salt): 7.0 x 1000 and 14.5 x 1000 and 9.6 x 1000 (2×) and 7.1 x 1000
- WBC's, Day 0 ([3]; trifluoroacetic acid salt): 14.1 x 1000 and 15.0 x 1000 and 9.9 x 1000 (2×) and 16.2 x 1000

Compound: NCCSCC1=C(C(=O)O)N2C(=O)[C@@H](NC(=O)Cc3cccs3)[C@H]2SC1 [7-β-(2-(thien-2-yl)acetamido)-3-((2-aminoethyl-1-sulfide)methylene)-3-cephem-4-carboxylic acid, reference compound]
- release of thiol ([2]; 50 mM Tris, 100 mM NaCl, pH 8.0, DTNB, absorbance at 412 nm vs 264 nm): thiol is released as a result of beta-lactamase catalyzed cleavage of the cephalosporin, but that the release rate is slower than the catalytic rate

Compound: CC[C@]1(O)C[C@@H]2CN(CCc3c([nH]c4ccccc34)[C@@](C(=O)OC)(c3cc4c(cc3OC)N(C)[C@H]3[C@@](O)(C(=O)NN)[C@H](O)[C@]5(CC)C=CCN6CC[C@]43[C@@H]65)C2)C1 [DAVLB-Hyd, 4 desacetylvinblastine-3-carboxhydrazide, reference compound]
- WBC suppression ([3]; day 3 after 1 mg/kg i.v., compared to all other groups): significant WBC suppression
- WBC's, Day 0, Mean [3]: 13.8 x 1000
- WBC's, Day 3, Mean ([3]; day 3 after 1 mg/kg i.v.): 7.4 x 1000
- WBC's, Day 7, Mean [3]: 9.2 x 1000
- WBC's, Day 3 ([3]; day 3 after 1 mg/kg i.v.): 4.4 x 1000 and 9.0 x 1000 and 5.4 x 1000 and 10.6 x 1000
- WBC's, Day 7 [3]: 5.0 x 1000 and 2.8 x 1000 and 19.8 x 1000
- WBC's, Day 0 [3]: 17.4 x 1000 and 10.9 x 1000 and 10.2 x 1000 and 12.7 x 1000 and 17.6 x 1000

Compound: 7-β-(2-(thien-2-yl)acetamido)-3-((((1-(desacetylvinblastine)amino)-2-ethylsulfide)methylene)-3-cephem-4-carboxylic acid [COMPOUND] [listing 2 of 2 here]
- toxicity to the tumor cells ([1]; LS174T cells first treated with B-L-CEM231 conjugate at 25 µg/ml for 1 hour): dramatically increased
- toxicity to the tumor cells ([1]; LS174T cells untreated with conjugate, compared with the Cytotoxic Agent from which it is derived): much less toxic to the tumor cells than the Cytotoxic Agent from which it is derived

Compound: CCC1(O)CC2CN(CCc3c([nH]c4ccccc34)C(C(=O)OC)(c3cc4c(cc3OC)N(C)C3C(O)(C(=O)NNC(=O)OCC5=C(C(=O)O)N6C(=O)C(NC(=O)Cc7cccs7)C6SC5)C(O)C5(CC)C=CCN6CCC43C65)C2)C1.Cl (stereo not shown) [LY266494]
- WBC's, Day 0, Mean [3]: 15.6 x 1000
- WBC's, Day 3, Mean ([3]; day 3 after 1 mg/kg i.v.): 15.0 x 1000
- WBC's, Day 7, Mean [3]: 12.0 x 1000
- WBC's, Day 3 ([3]; day 3 after 1 mg/kg i.v., hydrochloride salt): 19.2 x 1000 and 16.2 x 1000 and 14.3 x 1000 and 13.3 x 1000 and 12.1 x 1000
- WBC's, Day 7 ([3]; hydrochloride salt): 8.3 x 1000 and 6.8 x 1000 and 11.4 x 1000 and 13.2 x 1000 and 20.1 x 1000
- WBC's, Day 0 ([3]; hydrochloride salt): 15.6 x 1000 and 16.5 x 1000 and 14.3 x 1000 and 16.0 x 1000
